Among the data in ChEMBL document CHEMBL1153654, “Synthesis and potential anxiolytic activity of 4-amino-pyrido[2,3-b]indoles” (Bioorg Med Chem Lett, 1993) are IC50 and minimal effective dose values, retold here.

Test [1] addresses GABA-A receptor; anion channel. Description: Displacement of [3H]flunitrazepam from GABA-A central benzodiazepine receptor of mouse brain. (Loss of bound radioactivity is the signal in a displacement assay; it reports binding, not function.)
The target in test [2] is GABA-A receptor; anion channel. Description: Displacement of [35S]TBPS from GABA-A receptor complex at low umolar concentration. The class given is protein-complex assay.
A further test concerns Rattus norvegicus. Briefly: Tested for minimum effective dose required to cause motor in coordination in Geller-Seifter model in CFY rats (route of administration is peroral 30 min before testing). The class given is functional. To be noted: po, read-out: MED.
The test system of test [3] is GABA-A receptor; anion channel. Description: Displacement of [35S]TBPS from GABA-A receptor complex at low umolar concentration (insoluble). In kind it is protein-complex assay.
Test [4] relates to GABA-A receptor; anion channel. Description: Displacement of [3H]flunitrazepam from GABA-A central benzodiazepine receptor of mouse brain (insoluble).

pIC50: −log10 of the molar value.

Turning to `Cc1nc2c(c(N)c1C(=O)OCc1ccccc1)c1ccccc1n2C`, the pIC50 in test [1] and in test [2] was less than 4.52 in each case. The minimal effective dose with Rattus norvegicus is more than 50 mg/kg.

Turning to `Cc1nc2c(c(N)c1C(=O)O)c1ccccc1n2C`, the pIC50 in test [1] and in test [2] was less than 4.00 in each case. Further, the minimal effective dose in the test on Rattus norvegicus is more than 50 mg/kg.

With `COC(=O)c1c(C)nc2c(c1N)c1ccccc1n2C`, the values for the pIC50 in test [1] and in test [2] were less than 4.00 and 4.84, respectively. For the same molecule, the minimal effective dose in the test on Rattus norvegicus turned out to be 10 mg/kg.

With `CNc1c(C(=O)OC)c(C)nc2c1c1ccccc1n2C`, the pIC50 in test [1] was 4.08; in test [2] it was 4.77. The minimal effective dose in the test on Rattus norvegicus came to 20 mg/kg.

Consider `Cc1nc2c(c(N)c1CO)c1ccccc1n2C`, for which the pIC50 in test [1] and in test [2] was less than 4.00 throughout. The minimal effective dose with Rattus norvegicus is more than 50 mg/kg.

Consider `CCOC(=O)c1c(C)nc2c(c1N)c1ccccc1n2Cc1ccccc1`, for which the IC50 entry in test [3] and in test [4] was “Insoluble” each time. In addition, in the test with Rattus norvegicus, the minimal effective dose is more than 50 mg/kg.

With `CN1C(=O)CN=C(c2ccccc2)c2cc(Cl)ccc21` [DIAZEPAM], the minimal effective dose with Rattus norvegicus turned out to be 2.5 mg/kg.

Take `COC(=O)c1c(C)nc2c(c1N)c1ccccc1n2C1CCCC1`: the negative-log IC50 (pIC50) in test [1] is less than 4.00; in test [2], 4.10. For the same molecule, the minimal effective dose in the test with Rattus norvegicus is more than 50 mg/kg.

As for `CCOC(=O)c1c(C)nc2c(c1N)c1ccccc1n2C`, the pIC50 in test [1] is less than 4.00; in test [2], 5.34. Further, in the test on Rattus norvegicus, the minimal effective dose was found to be 10 mg/kg.

In the case of `C=CCOC(=O)c1c(C)nc2c(c1N)c1ccccc1n2C`, the figures for the pIC50 in test [1] and in test [2] were less than 4.00 and 5.42, respectively. Moreover, the minimal effective dose with Rattus norvegicus was found to be 20 mg/kg.

As for `Cc1[nH]c2nc3ccccc3c-2c(N)c1C(N)=O`, the negative-log IC50 (pIC50) in test [1] and in test [2] was less than 4.00 in each case. Further, in the test with Rattus norvegicus, the minimal effective dose was more than 50 mg/kg.

Consider `COC(=O)c1c(C)nc2c(c1N)c1cc(Cl)ccc1n2C`, for which the IC50 entry in test [3] and in test [4] was “Insoluble” in each case. Further, the minimal effective dose with Rattus norvegicus is 50 mg/kg.

Take `COP(=O)(OC)c1c(C)nc2c(c1N)c1ccccc1n2C`: the pIC50 in test [1] and in test [2] was less than 4.52 in each case. Besides, the minimal effective dose in the test with Rattus norvegicus is more than 20 mg/kg.

As for `COC(=O)c1c(C)[nH]c2nc3ccccc3c-2c1N`, the IC50 result in test [3] and in test [4] was “Insoluble” in each case. Also, the minimal effective dose in the test on Rattus norvegicus is 5 mg/kg.

On to `CCn1c2ccccc2c2c(N)c(C(=O)OC)c(C)nc21`, for which the negative-log IC50 (pIC50) in test [1] was less than 4.00; in test [2], 5.23. For the same molecule, the minimal effective dose in the test with Rattus norvegicus was determined as 5 mg/kg.

Regarding `COC(=O)c1c(-c2ccccc2)nc2c(c1N)c1ccccc1n2C`, the pIC50 in test [1] was less than 4.52; in test [2], 4.95. Also, in the test on Rattus norvegicus, the minimal effective dose worked out at 50 mg/kg.

In the case of `COC(=O)c1c(C)nc2c(c1N)c1ccccc1n2C(=O)OC`, the negative logarithm of the IC50 (pIC50) is less than 4.52 in test [1] and 5.02 in test [2]. Besides, the minimal effective dose in the test on Rattus norvegicus was 20 mg/kg.

As for `CCCOC(=O)c1c(C)nc2c(c1N)c1ccccc1n2C`, the results for the pIC50 in test [1] and in test [2] were less than 4.00 and 5.66, respectively. Further, in the test with Rattus norvegicus, the minimal effective dose worked out at 10 mg/kg.

One may read the pIC50 as the IC50 on a negative log10 scale, so that one unit is a factor of ten.
